Article PMC4536990, “Efficacy of the antimicrobial peptide TP4 against Helicobacter pylori infection: in vitro membrane perturbation via micellization and in vivo suppression of host immune responses in a mouse model” (Oncotarget, 2015)

Tests used:
Format in all cases: cell-based, Helicobacter pylori
H. pylori [1] = assay: Induction of drug resistance by sub-inhibitory passaging (in vitro / in vivo passage); conditions: sub-inhibitory doses, 10 serial passages
Method: (§1) Animals were sacrificed at each passage, and the MIC of TP4, amoxicillin, metronidazole, and clarithromycin were recorded for 10 serial passages. Passage points in the curves are means ± SEM. (MICs: standard MIC value; MICp: passage-induced MIC). (B) In vitro dose-OD fall kinetics were examined for TP4 alone and in combination with amoxicillin, metronidazole, or clarithromycin. […] The data shown are means ± SEM of two independent experiments
The drug resistance of bacteria to TP4 and clinical antibiotics was determined by in vitro culturing of H. pylori in sub-inhibitory concentrations of TP4 and antibiotics, followed by repeated in vivo passaging. H. pylori was administered to C3H/HeN mice and allowed to colonize the gut; subsequently pure colonies of H. pylori were isolated on EYE selective media. This step was repeated for 10 passages. During each passage, the MICs of TP4 and the conventional antibiotics were determined. All procedures, care, and handling of mice were approved by the laboratory animal ethics committee of National Taiwan Ocean University.

[2] = system: metronidazole- and clarithromycin-resistant H. pylori strains; assay: Synergy of TP4 with antibiotics, in vitro dose-OD fall kinetics; conditions: TP4 plus antibiotic
Method: as §1
Combination therapy often enhances antibiotic efficacy and mitigates the frequency at which drug resistance emerges. To determine the suitability of TP4 for combination therapy, we examined in vitro dose-OD fall kinetics of TP4 in combination with AMOX, CLRN, or METZ antibiotics; these three antibiotics are traditionally used as the first line of defense against H. pylori.

H. pylori CI-HC-028 = assay: Time-dependent killing of multidrug resistant clinical isolate; conditions: CI-HC-028, at MIC
Method: Control peptide and H. pylori alone were used as controls. The cultures were monitored for 24 h, and aliquots were taken at 1, 3, 6, 12, and 24 h for bacterial enumeration. The data are means ± SEM. […] Approximately, 1 × 10^5 cells were incubated for 1 h, and then incubated with the MIC of TP4, amoxicillin, metronidazole, or clarithromycin (AMOX, METZ, and CLRN, respectively). The cultures were monitored for 24 h, and aliquots taken at 1, 3, 6, 12, and 24 h to determine surviving c.f.u. The data are means ± SEM
Overnight cultures of H. pylori were scraped and adjusted to OD 0.05, and 1 ml/tube inocula were prepared with BHI broth. Solutions of TP4 or clinical antibiotics were prepared with concentrations corresponding to their respective MIC, and PBS was used as a control. The tubes were incubated without shaking at 37°C under microaerophilic conditions, and sample aliquots were taken at 0, 1, 3, 6, 12, and 24 hr. The samples were serially diluted, and appropriate dilutions were plated in triplicate onto blood agar plates for bacterial counts. The results were expressed as mean log (c.f.u. mL^−1) with standard error.

H. pylori outer membrane = assay: NPN uptake membrane perturbation assay; conditions: 6 h incubation, 22μg mL−1 NPN
Method: Figure 3 TP4 induces membrane permeation of H. pylori TP4 rapidly permeabilizes the H. pylori outer membrane in a dose-dependent manner. Membrane permeabilization was examined by measuring fluorescence due to uptake of 1-N-phenyl-naphthylamine (NPN). Approximately 5 × 10^6 H. pylori (Hp) cells were cultured in the presence of TP4 or amoxicillin for 6 h. Bacterial cells alone, or cells incubated with NPN and control peptide, were used as negative controls. NPN fluorescence intensity was recorded as a correlate of membrane permeation. (B) Zeta-potential (ζ) of H. pylori in the presence/absence of TP4. Striped bars: H. pylori grown in blood agar plates; white bar: liquid culture. The data shown are means ± SEM of two independent experiments
The NPN membrane permeation assay was performed as described previously. Briefly, a starter culture of H. pylori was grown overnight to 0.05 OD. The adjusted culture was aliquoted into different tubes with or without TP4/amoxicillin, and incubated at 37°C for 360 minutes under microaerophilic conditions. […] NPN fluorescence intensity was recorded using a Synergy HT (BioTek, U.S.A) fluorescence ELISA reader, and correlated to membrane potential and permeation. Experiments were performed in triplicate, and the results are expressed as means with standard error.

H. pylori [3] = assay: Transmission electron microscopy of H. pylori morphology; conditions: 1x MIC, 2 hr
From the text: Figure 4 Electron micrographs reveal that TP4 causes membrane disruption in H. pylori via micellization Approximately 6 × 10^7 H. pylori cells were exposed to PBS (A, D), 1x MIC amoxicillin (B, E), or 1x MIC TP4 peptide (C, F) for 2 hr. Next, thin sections were examined under a transmission electron microscope (TEM) at low (1,100X; A-C) or high (5,500X; D-F) magnification. […] (E) Amoxicillin-treated cells retained intact membranes, but the periplasmic space was swollen in some locations.
Transmission electron microscopy (TEM) was used to examine the mechanism of TP4 action on H. pylori, overall cell morphology, TP4 translocation into H. pylori, and binding of TP4 to internal constituents. H. pylori overnight cultures from BHI-blood agar plates were collected, and 0.1 OD inocula were incubated with TP4, Amoxicillin, and/or PBS (PBS only: negative control). Following drug exposure, H. pylori cells were collected and successively washed twice in PBS by centrifugation and resuspension. The cells were then fixed and processed for TEM using previously described methods. […] Each grid was examined under the same settings. Images were recorded with a 4MP SPOT Insight charge-coupled-device (CCD) camera.

**Q.** What does the source list for `CC1(C)S[C@@H]2[C@H](NC(=O)[C@H](N)c3ccc(O)cc3)C(=O)N2[C@H]1C(=O)O` [amoxicillin]?
**A.** drug resistance index MICp/MICs (H. pylori [1]): increased slightly after passage 6, and remained constant thereafter; reduction of the MIC of the antibiotic in combination with TP4 [2]: one-fourth; killing within 24 hr (H. pylori CI-HC-028): 90%; NPN fluorescence intensity (membrane permeabilization) (H. pylori outer membrane): slight increase in fluorescence intensity at higher doses; membrane morphology by TEM (H. pylori [3]): loose outer membranes
